Reference: patent US20140045689A1, “3,4-disubstituted pyrrole 2,5-diones and their use as fungicides” (priority 2011, published 2014)

Key:
[1] = tested on: Phakopsora pachyrhizi; test: Protective control of soy bean rust on soy beans caused by Phakopsora pachyrhizi (greenhouse); format: in vivo; settings: % diseased leaf area, soy bean seedlings sprayed 1 day before inoculation, untreated control 90
Procedure: (§1) The active substances were formulated separately or together as a stock solution comprising 25 mg of active substance which was made up to 10 ml using a mixture of acetone and/or dimethyl sulfoxide (DMSO) and the emulsifier Wettol EM 31 (wetting agent having emulsifying and dispersing action based on ethoxylated alkylphenols) in a volume ratio of solvent/emulsifier of 99 to 1. This solution was then made up to 100 ml using water. This stock solution was diluted with the solvent/emulsifier/water mixture described to the active substance concentration given below.
Leaves of pot-grown soy bean seedlings were sprayed to run-off with an aqueous suspension, containing the concentration of active ingredient or their mixture as described below. The plants were allowed to air-dry. The trial plants were cultivated for 1 day in a greenhouse chamber at 23-27° C. and a relative humidity between 60 and 80%. Then the plants were inoculated with spores of Phakopsora pachyrhizi. To ensure the success the artificial inoculation, the plants were transferred to a humid chamber with a relative humidity of about 95% and 20 to 24° C. for 24 h. The trial plants were cultivated for fourteen days in a greenhouse chamber at 23-27° C. and a relative humidity between 60 and 80%. The extent of fungal attack on the leaves was visually assessed as % diseased leaf area.

[2] = tested on: Pyricularia oryzae; format: cell-based; settings: relative growth vs active substance-free control (=100%), absorption 405 nm, day 7 after inoculation
[3] = tested on: Septoria tritici; test: Preventative control of leaf blotch on wheat caused by Septoria tritici (Septtr P1, greenhouse); format: in vivo; settings: % diseased leaf area, wheat seedlings sprayed 1 day before inoculation, untreated control 80
Procedure: as §1
Leaves of pot-grown wheat seedling were sprayed to run-off with an aqueous suspension of the active compound or their mixture, prepared as described. The plants were allowed to air-dry. At the following day the plants were inoculated with an aqueous spore suspension of Septoria tritici. Then the trial plants were immediately transferred to a humid chamber at 18-22° C. and a relative humidity close to 100%. After 4 days the plants were transferred to a chamber with 18-22° C. and a relative humidity close to 70%. After 4 weeks the extent of fungal attack on the leaves was visually assessed as % diseased leaf area.

[4] = tested on: Plasmopara viticola; format: in vivo; settings: % diseased leaf area on lower leaf surface, grape cuttings sprayed 1 day before inoculation, untreated control 100
[5] = tested on: Pyrenophora teres; test: Activity against net blotch Pyrenophora teres in the microtiter test; format: cell-based; settings: relative growth vs active substance-free control (=100%), absorption 405 nm, day 7 after inoculation

CCN1C(=O)C(Cl)=C(Sc2ccccc2S)C1=O
Disease (%) at 1000 pm Phakpa P1 [1]: 3%

CCN1C(=O)C(Cl)=C(Nc2ccccc2O)C1=O [drawing 60]
Growth at 32 ppm (%) [2]: 10%

CCN1C(=O)C=C(Nc2ccccc2O)C1=O [drawing 61]
Growth at 32 ppm (%) [2]: 11%

CCN1C(=O)C(Cl)=C(Sc2ccccc2O)C1=O
Disease (%) at 1000 pm Septtr P1 [3]: 1%

CN(C)C1=C(C#N)C(=O)N(C)C1=O
melting point: 120 °C

COC1=C(OC)C(=O)N(C)C1=O
Disease (%) at 1000 pm Plasvi P1 [4]: 20%

CN1C(=O)C(Oc2ccccc2)=C(Oc2ccccc2)C1=O
Growth at 32 ppm (%) [5]: 1%

CN1C(=O)C(N)=C(Cl)C1=O
Disease (%) at 1000 pm Plasvi P1 [4]: 7%

CCN1C(=O)C=C(Nc2ccccc2O)C1=O [drawing 58]
Growth at 32 ppm (%) [5]: 12%

CSC1=C(SC)C(=O)N(C)C1=O [drawing 59]
Growth at 32 ppm (%) [2]: 0%

CSC1=C(SC)C(=O)N(C)C1=O [drawing 56]
Growth at 32 ppm (%) [5]: 0%

CCN1C(=O)C(Cl)=C(Nc2ccccc2O)C1=O [drawing 57]
Growth at 32 ppm (%) [5]: 15%
